We go through 26 compounds from patent US20020016330A1, “Materials and methods for killing nematodes and nematode eggs” (priority 2000, published 2002).

For assay [1], the system named is Caenorhabditis elegans. Put plainly: C. elegans L1 nematicidal dose response, 5 day visual viability score (3-fold dilutions). The conditions noted are these: for 5 Day Visual Score V6: 0.3 μM; for 5 Day Visual Score V5: 0.9 μM; for 5 Day Visual Score V4: 2.6 μM; for 5 Day Visual Score V3: 7.8 μM; for 5 Day Visual Score V2: 23.3 μM; for 5 Day Visual Score V1: 70 μM. Details: key: Dead: only stiff L1s (no movement); Dead (L4): worms are dead, but at a later larval stage; majority of worms are L1 (based on size); majority of worms are L2 (based on size); majority of worms are L3 (based on size); majority of worms are L4 (based on size); AD: majority of worms are adult; #AD: 5 adult worms or less; B!: sterile (0-25 progeny); B: low broodsize (25-100 progeny); ˜B: moderate broodsize (100-250 progeny); <: reduced broodsize (250-500 progeny); OK: no effect (˜1000+ progeny). Format: in vivo. The procedure:
Caenorhabditis elegans adults were grown on Nematode Growth Medium (NGM) until they produced eggs, then the adults were removed.
The eggs were allowed to hatch, and the L1 larvae collected. See The Nematode Caenorhabditis elegans (1988) Cold Spring Harbor Laboratory Press. Using a Matrix Programmable Pipette, the L1s were distributed into 96-well tissue culture plates, 20 L1 in 50 μl NGM per well. Antibiotic/Antimyotic was added to each well, and 1% by weight E. coli strain HB101. The subject anthelmintic compounds were stored at 5 mM in 100% DMSO. 0.7 μl of compounds 1-31 were added to the left-most column of wells to yield a final concentration of 70 μM in 1.4% DMSO, with 1.4% DMSO only as the control. The compounds were then subjected to 5 more 3-fold dilutions from left to right to yield 6 column concentrations of 70 μM, 23.3 μM, 7.8 μM, 2.6 μM, 0.9 μM, and 0.3 μM. Plates were stored in air-tight Rubbermaid plastic boxes at 20° C. The nematodes had cleared all control wells by day 4, and nematode viability was scored by visual examination under a 100× dissecting microscope on day 5. A visual viability scoring system was used as follows:
Column VI has a compound concentration of 70 μM with sequential 3-fold dilutions reported in columns V2, V3, V4, V5, and V6, respectively, such that the V6 concentration was 0.3 μM.
(§1) The nematicidal activity of anthelmintic Compositions 48-68 were determined in accordance with the procedure outlined in Example 2.

Assay [2] concerns Caenorhabditis elegans. Put plainly: Follow-up HTS Run (mOD, % Run, visual score). The note with it: in vivo. The method, then:
as §1

Assay [3] relates to Caenorhabditis elegans. Kind of assay: Initial HTS Run (mOD, % Run, visual score). The conditions noted are these: in vivo. The procedure:
as §1

Setting [4] is: Table 3, procedure of Example 2.

`Cc1ccc(-c2noc(C3CCC(CNC(=O)Nc4ccc(OC(F)(F)F)cc4)CC3)n2)cc1C` (centres unmarked) [AKC 112]: in the assay with Caenorhabditis elegans [1] (scored day 5), the “5 Day Visual Score V6” value was “OK (no effect (˜1000+ progeny))” and the “5 Day Visual Score V5” value is given as “#AD/˜B”.

Take `CC(C)(C)c1csc(NC(=O)Cc2cn(Cc3ccccc3Cl)c3ccc(Cl)cc23)n1` [AKC 157]: in the assay with Caenorhabditis elegans [2], the “Follow-up HTS Run % Run” value was 108% and the “Follow-up HTS Run mOD” value was 174 mOD. In the assay with Caenorhabditis elegans [3], the “Initial HTS Run % Run” value came to 98% and the “Initial HTS Run mOD” value is reported as 120 mOD. In the assay on Caenorhabditis elegans [1] (setting [4]), the “5 Day Visual Score V6” value is listed as “OK (no effect (˜1000+ progeny))”, the “5 Day Visual Score V5” value is “OK (no effect (˜1000+ progeny))”, the “5 Day Visual Score V4” value is listed as “< (reduced broodsize (250-500 progeny))” and the “5 Day Visual Score V3” value was “< (reduced broodsize (250-500 progeny))”. For the same compound, the “5 Day Visual Score V2” value in the assay on Caenorhabditis elegans [1] (setting [4]) is on record as “OK (no effect (˜1000+ progeny))”.

Regarding `Cc1ccc(C(CC(=O)c2ccccc2)Nc2ccc(I)cc2)o1` (centres unmarked) [AKC 128], in the assay on Caenorhabditis elegans [1] (scored day 5), the “5 Day Visual Score V6” value was “OK (no effect (˜1000+ progeny))”, the “5 Day Visual Score V5” value is “#AD/˜B”, the “5 Day Visual Score V4” value is “L1” and the “5 Day Visual Score V3” value was “Dead”. For the same compound, in the assay on Caenorhabditis elegans [1] (scored day 5), the “5 Day Visual Score V2” value is reported as “Dead” and the “5 Day Visual Score V1” value is on record as “Dead”.

With `O=C(NCCc1ccccc1F)C1C(c2ccccc2Cl)=NOC1c1ccc(-c2ccccc2)cc1` (centres unmarked) [AKC 110], in the assay with Caenorhabditis elegans [1] (scored day 5), the “5 Day Visual Score V6” value is given as “L1”, the “5 Day Visual Score V5” value is recorded as “L1”, the “5 Day Visual Score V4” value is “L1” and the “5 Day Visual Score V3” value is recorded as “L1”. Moreover, in the assay on Caenorhabditis elegans [1] (scored day 5), the “5 Day Visual Score V2” value is given as “L1” and the “5 Day Visual Score V1” value is given as “L1”.

On to `O=C(Nc1ccc(OC(F)(F)F)cc1)NC1CCC(c2nc(-c3ccccc3)no2)CC1` (centres unmarked) [AKC 107], for which, in the assay on Caenorhabditis elegans [1] (scored day 5), the “5 Day Visual Score V6” value is “L2/Dead(L”, the “5 Day Visual Score V4” value was “Dead(L4)”, the “5 Day Visual Score V2” value is “Dead(L2/L3)” and the “5 Day Visual Score V1” value is on record as “Dead”.

As for `CCC1CCCCN1c1cc(Oc2ccc3oc4ccccc4c3c2)ncn1` (centres unmarked) [AKC 340], in the assay with Caenorhabditis elegans [1] (scored day 5), the “5 Day Visual Score V2” value is on record as “L1” and the “5 Day Visual Score V1” value is listed as “L1”.

For `CCCCOc1ccc(-c2noc(C3CCC(NC(=O)c4ccc5c(c4)OCO5)CC3)n2)cc1` (centres unmarked) [AKC 103], in the assay on Caenorhabditis elegans [1] (scored day 5), the “5 Day Visual Score V5” value is given as “L4/#AD/B”, the “5 Day Visual Score V3” value is on record as “Dead(L4)” and the “5 Day Visual Score V2” value is given as “Dead(L3/L4”.

With `CCCCOc1ccc(C(=O)N2CC(OCCCc3ccccc3)CC2C(=O)NCc2ccccc2Br)cc1` (centres unmarked) [AKC 102], the “5 Day Visual Score V4” value with Caenorhabditis elegans [1] (scored day 5) is given as “L3”.

On to `CCOc1ccc(C2ON=C(c3ccc(N(C)C)cc3)C2C(=O)NCCc2ccc(F)cc2)cc1` (centres unmarked) [AKC 123], for which, in the assay with Caenorhabditis elegans [1] (scored day 5), the “5 Day Visual Score V6” value is reported as “#AD/˜B” and the “5 Day Visual Score V1” value was “L1”.

With `CCOc1cccc(C2ON=C(c3ccccc3OCC)C2C(=O)NCCc2ccc(OC)c(OCC)c2)c1` (centres unmarked) [AKC 124], in the assay on Caenorhabditis elegans [1] (scored day 5), the “5 Day Visual Score V6” value was “L4/#AD/B”, the “5 Day Visual Score V5” value is reported as “L4/#AD/B” and the “5 Day Visual Score V4” value was “L4/#AD/B”.

In the case of `O=C(NCCCCCc1nc(-c2ccccc2)no1)Nc1ccc(OC(F)(F)F)cc1` [AKC 115], in the assay with Caenorhabditis elegans [1] (scored day 5), the “5 Day Visual Score V5” value is recorded as “Dead(L2/L”, the “5 Day Visual Score V4” value is “Dead(L2)”, the “5 Day Visual Score V3” value is “L2/Dead(L2)” and the “5 Day Visual Score V2” value is “Dead(L2/L3)”. In addition, the “5 Day Visual Score V1” value in the assay with Caenorhabditis elegans [1] (scored day 5) was “Dead”.

On to `COc1ccc(C2=NOC(c3ccc(-c4ccccc4)cc3)C2C(=O)NCCc2ccccc2F)cc1` (centres unmarked) [AKC 121], for which, in the assay with Caenorhabditis elegans [1] (scored day 5), the “5 Day Visual Score V4” value is “#AD/˜B”, the “5 Day Visual Score V2” value is “L1” and the “5 Day Visual Score V1” value was “L1”.

For `CCOc1ccccc1C1=NOC(c2cccc3ccccc23)C1C(=O)NCc1ccc(OC(F)(F)F)cc1` (centres unmarked) [AKC 105], in the assay on Caenorhabditis elegans [1] (scored day 5), the “5 Day Visual Score V5” value was “L2/Dead(L”, the “5 Day Visual Score V4” value was “L2/Dead(L”, the “5 Day Visual Score V3” value is given as “L2/Dead(L3)” and the “5 Day Visual Score V2” value is on record as “L2/Dead(L3)”. For the same compound, the “5 Day Visual Score V1” value with Caenorhabditis elegans [1] (scored day 5) is given as “L2/Dead(L3)”.

As for `CCC(=O)C(C)C(Nc1cc(Br)c(C)c(Br)c1)c1ccc(C)o1` (centres unmarked) [AKC 131], in the assay with Caenorhabditis elegans [1] (scored day 5), the “5 Day Visual Score V5” value is reported as “#AD/˜B”, the “5 Day Visual Score V4” value is “#AD/˜B”, the “5 Day Visual Score V3” value is “#AD/˜B” and the “5 Day Visual Score V2” value is “L1”. Also, the “5 Day Visual Score V1” value in the assay on Caenorhabditis elegans [1] (scored day 5) is “Dead”.

As for `O=C(Nc1ccc(Br)cc1)NC1CCC(c2nc(-c3ccccc3)no2)CC1` (centres unmarked) [AKC 114], in the assay on Caenorhabditis elegans [1] (scored day 5), the “5 Day Visual Score V4” value was “L3/Dead(L”, the “5 Day Visual Score V3” value is given as “L3”, the “5 Day Visual Score V2” value was “L3/Dead(L4)” and the “5 Day Visual Score V1” value was “Dead”.

With `Cc1ccc(C(CC(=O)c2ccccc2)Nc2ccc(I)cc2F)o1` (centres unmarked) [AKC 129], in the assay with Caenorhabditis elegans [1] (scored day 5), the “5 Day Visual Score V5” value is given as “OK (no effect (˜1000+ progeny))”, the “5 Day Visual Score V2” value is on record as “Dead” and the “5 Day Visual Score V1” value is given as “Dead”.

`O=C(NCC1CCC(c2nc(-c3ccccc3)no2)CC1)Nc1ccc(OC(F)(F)F)cc1` (centres unmarked) [AKC 113]: in the assay with Caenorhabditis elegans [1] (scored day 5), the “5 Day Visual Score V6” value was “L4/#AD/B”, the “5 Day Visual Score V4” value was “Dead(L2/L”, the “5 Day Visual Score V3” value is on record as “Dead” and the “5 Day Visual Score V2” value was “Dead”. Moreover, the “5 Day Visual Score V1” value in the assay with Caenorhabditis elegans [1] (scored day 5) is given as “Dead”.

For the compound `O=C(NCCc1ccccc1F)C1C(c2ccc(F)cc2)=NOC1c1ccc(-c2ccccc2)cc1` (centres unmarked) [AKC 2153], in the assay with Caenorhabditis elegans [1] (scored day 5), the “5 Day Visual Score V2” value is “L1” and the “5 Day Visual Score V1” value is “L1”.

With `O=C(Nc1ccc(Br)cc1)N1CCC(c2nc(-c3ccccc3)no2)CC1` [AKC 108], in the assay with Caenorhabditis elegans [1] (scored day 5), the “5 Day Visual Score V4” value was “L1”, the “5 Day Visual Score V3” value is listed as “L1”, the “5 Day Visual Score V2” value is “Dead” and the “5 Day Visual Score V1” value is “Dead”.

For the compound `CCOc1cccc(C2ON=C(c3ccccc3OCC)C2C(=O)NCc2ccc(OC(F)(F)F)cc2)c1` (centres unmarked) [AKC 125], in the assay with Caenorhabditis elegans [1] (scored day 5), the “5 Day Visual Score V4” value is on record as “L2”, the “5 Day Visual Score V3” value is reported as “L2”, the “5 Day Visual Score V2” value is “L2/Dead(L4)” and the “5 Day Visual Score V1” value is on record as “L2/Dead(L3)”.

`CCCc1ccc(C(Nc2ccc(-c3ccccc3)cc2)C2CCCCC2=O)cc1` (centres unmarked) [AKC 132]: in the assay on Caenorhabditis elegans [1] (scored day 5), the “5 Day Visual Score V6” value is listed as “Dead”, the “5 Day Visual Score V3” value is listed as “Dead”, the “5 Day Visual Score V2” value was “Dead” and the “5 Day Visual Score V1” value is on record as “Dead(L2)”.

`CCOc1ccc(C2ON=C(c3ccc(F)cc3)C2C(=O)NCCc2ccc(F)cc2)cc1` (centres unmarked) [AKC 122]: in the assay on Caenorhabditis elegans [1] (scored day 5), the “5 Day Visual Score V6” value is listed as “OK (no effect (˜1000+ progeny))”, the “5 Day Visual Score V2” value is “L1” and the “5 Day Visual Score V1” value is on record as “Dead”.

For the compound `CCCCOc1ccc(C(=O)N2CC(OCCCc3ccccc3)CC2C(=O)NCc2ccccc2OC)cc1` (centres unmarked) [AKC 126], in the assay with Caenorhabditis elegans [1] (scored day 5), the “5 Day Visual Score V6” value is given as “#AD/˜B” and the “5 Day Visual Score V4” value was “#AD/˜B”.

In the case of `Fc1ccc(N2CCN(c3nc(NCc4ccc(C(F)(F)F)cc4)ns3)CC2)cc1` [AKC 135], in the assay with Caenorhabditis elegans [1] (scored day 5), the “5 Day Visual Score V2” value is recorded as “L1” and the “5 Day Visual Score V1” value was “Dead”.

In the case of `CC(C)(C)C1=NOC(c2ccc(-c3ccccc3)cc2)C1C(=O)NCCc1ccccc1F` (centres unmarked) [AKC 120], in the assay on Caenorhabditis elegans [1] (scored day 5), the “5 Day Visual Score V6” value was “OK (no effect (˜1000+ progeny))”, the “5 Day Visual Score V5” value is “#AD/˜B”, the “5 Day Visual Score V3” value is “L1” and the “5 Day Visual Score V1” value is reported as “L1”.

As to `COc1ccccc1-c1noc(C(C)CNC(=O)Nc2ccc(OC(F)(F)F)cc2)n1` (centres unmarked) [AKC 111], in the assay with Caenorhabditis elegans [1] (scored day 5), the “5 Day Visual Score V6” value is given as “OK (no effect (˜1000+ progeny))”, the “5 Day Visual Score V4” value is listed as “Dead(L3/L”, the “5 Day Visual Score V3” value is on record as “L2” and the “5 Day Visual Score V2” value is recorded as “Dead”. The “5 Day Visual Score V1” value in the assay with Caenorhabditis elegans [1] (scored day 5) was “Dead”.
